Results: ChEMBL document CHEMBL3091424, “Anti-tubercular agents. Part 8: synthesis, antibacterial and antitubercular activity of 5-nitrofuran based 1,2,3-triazoles” (Bioorg Med Chem Lett, 2013)
Values after ≈ are worked out from the molar mass of the structure shown. Active and inactive are the calls of the source. The rule behind the calls is not given here.

Legend:
Bacillus subtilis [1] = assay: Antimicrobial activity against Bacillus subtilis MTCC 121 after 24 hrs by well diffusion method; assay type: functional; details: MTCC 121, 24 h
Staphylococcus aureus [2] = assay: Antimicrobial activity against Staphylococcus aureus MLS-16 MTCC 2940 after 24 hrs by well diffusion method; assay type: functional; details: MLS-16 MTCC 2940, 24 h
Bacillus subtilis [3] = assay: Bactericidal activity against Bacillus subtilis MTCC 121 after 24 hrs; assay type: functional; details: MTCC 121, 24 h
MRC5 = assay: Cytotoxicity against human MRC5 cells; assay type: cell-based
Staphylococcus aureus [4] = assay: Antimicrobial activity against Staphylococcus aureus MTCC 96 after 24 hrs by well diffusion method; assay type: functional; details: MTCC 96, 24 h
Raoultella planticola [5] = assay: Bactericidal activity against Klebsiella planticola MTCC 530 after 24 hrs; assay type: functional; details: MTCC 530, 24 h
Candida albicans [6] = assay: Antimicrobial activity against Candida albicans MTCC 3017 at 150 ug/ml after 24 hrs by well diffusion method; assay type: functional, organism-based
Vero = assay: Cytotoxicity against african green monkey Vero cells; assay type: cell-based; details: Chlorocebus sabaeus
Escherichia coli [7] = assay: Bactericidal activity against Escherichia coli MTCC 739 after 24 hrs; assay type: functional; details: MTCC 739, 24 h
[8] = test system: Mycobacterium tuberculosis; assay: Antimicrobial activity against Mycobacterium tuberculosis H37Rv after 3 weeks by broth dilution method; assay type: functional; details: for MIC: 504 h
Pseudomonas aeruginosa [9] = assay: Antimicrobial activity against Pseudomonas aeruginosa MTCC 2453 after 24 hrs by well diffusion method; assay type: functional; details: MTCC 2453, 24 h
Micrococcus luteus [10] = assay: Bactericidal activity against Micrococcus luteus MTCC 2470 after 24 hrs; assay type: functional; details: MTCC 2470, 24 h
Enterococcus faecalis = assay: Antimicrobial activity against vancomycin -resistant Enterococcus faecalis after 24 hrs by microdilution method; assay type: functional
Escherichia coli [11] = assay: Antimicrobial activity against Escherichia coli MTCC 739 after 24 hrs by well diffusion method; assay type: functional; details: MTCC 739, 24 h
Staphylococcus aureus [12] = assay: Antimicrobial activity against methicillin-resistant Staphylococcus aureus after 24 hrs by microdilution method; assay type: functional
Micrococcus luteus [13] = assay: Antimicrobial activity against Micrococcus luteus MTCC 2470 after 24 hrs by well diffusion method; assay type: functional; details: MTCC 2470, 24 h
Staphylococcus aureus [14] = assay: Bactericidal activity against Staphylococcus aureus MLS-16 MTCC 2940 after 24 hrs; assay type: functional; details: MLS-16 MTCC 2940, 24 h
Pseudomonas aeruginosa [15] = assay: Bactericidal activity against Pseudomonas aeruginosa MTCC 2453 after 24 hrs; assay type: functional; details: MTCC 2453, 24 h
Staphylococcus aureus [16] = assay: Bactericidal activity against Staphylococcus aureus MTCC 96 after 24 hrs; assay type: functional; details: MTCC 96, 24 h
Raoultella planticola [17] = assay: Antimicrobial activity against Klebsiella planticola MTCC 530 after 24 hrs by well diffusion method; assay type: functional; details: MTCC 530, 24 h
Staphylococcus aureus [18] = assay: Antibiofilm activity against Staphylococcus aureus MTCC 96 after 24 hrs by crystal violet assay; assay type: functional, organism-based; details: for IC50: MTCC 96, 24 h
Raoultella planticola [19] = assay: Antibiofilm activity against Klebsiella planticola MTCC 530 after 24 hrs by crystal violet assay; assay type: functional, organism-based; details: MTCC 530, 24 h
Staphylococcus aureus [20] = assay: Antibiofilm activity against Staphylococcus aureus MLS-16 MTCC 2940 after 24 hrs by crystal violet assay; assay type: functional, organism-based; details: MLS-16 MTCC 2940, 24 h
Candida albicans [21] = assay: microbe, parasite or virus in culture; details: MTCC 3017, 24 h
Description: Antimicrobial activity against Candida albicans MTCC 3017 after 24 hrs by well diffusion method

SMILES	MIC (Bacillus subtilis [1]) [µg/mL]	MIC (Staphylococcus aureus [2]) [µg/mL]	MBC (Bacillus subtilis [3]) [µg/mL]	IC50 (MRC5) [µM]	MIC (Staphylococcus aureus [4]) [µg/mL]	MBC (Raoultella planticola [5]) [µg/mL]	Activity (Candida albicans [6])	IC50 (Vero) [µM]	MBC (Escherichia coli [7]) [µg/mL]	MIC (Pseudomonas aeruginosa [9]) [µg/mL]	MBC (Micrococcus luteus [10]) [µg/mL]	MIC (Escherichia coli [11]) [µg/mL]	MIC (Micrococcus luteus [13]) [µg/mL]	MBC (Staphylococcus aureus [14]) [µg/mL]	MBC (Pseudomonas aeruginosa [15]) [µg/mL]	MBC (Staphylococcus aureus [16]) [µg/mL]	MIC (Raoultella planticola [17]) [µg/mL]	IC50 (Staphylococcus aureus [18]) [µg/mL]	IC50 (Raoultella planticola [19]) [µg/mL]	IC50 (Staphylococcus aureus [20]) [µg/mL]	also measured
COc1cc(Cn2cc(CNC(=O)c3ccc([N+](=O)[O-])o3)nn2)ccc1O	4.68 (≈ 12.5 µM)	2.34 (≈ 6.27 µM)	9.37 (≈ 25.1 µM)	182	18.8 (≈ 50.2 µM)	75 (≈ 201 µM)	inactive	224	75 (≈ 201 µM)	> 150	2.34 (≈ 6.27 µM)	37.5 (≈ 100 µM)	1.17 (≈ 3.13 µM)	4.68 (≈ 12.5 µM)	> 150	18.8 (≈ 50.2 µM)	75 (≈ 201 µM)	10.8 (≈ 28.9 µM)	42.5 (≈ 114 µM)	1.7 (≈ 4.55 µM)	MIC [8]: 8 µg/mL (≈ 21.4 µM); MIC (Enterococcus faecalis): > 64 µg/mL; MIC (Staphylococcus aureus [12]): 16 µg/mL (≈ 42.9 µM)
O=C(NCc1cn(Cc2ccc([N+](=O)[O-])cc2)nn1)c1ccc([N+](=O)[O-])o1	2.34 (≈ 6.29 µM)	4.68 (≈ 12.6 µM)	4.68 (≈ 12.6 µM)	213	> 150	37.5 (≈ 101 µM)	inactive	291	> 150	> 150	9.37 (≈ 25.2 µM)	> 150	4.68 (≈ 12.6 µM)	4.68 (≈ 12.6 µM)	> 150	> 150	18.8 (≈ 50.4 µM)	–	17.9 (≈ 48.1 µM)	3.8 (≈ 10.2 µM)	MIC [8]: 8 µg/mL (≈ 21.5 µM); MIC (Enterococcus faecalis): > 64 µg/mL; MIC (Staphylococcus aureus [12]): 8 µg/mL (≈ 21.5 µM); inhibition (Staphylococcus aureus [18]): inactive
COc1ccc(Cn2cc(CNC(=O)c3ccc([N+](=O)[O-])o3)nn2)cc1F	2.34 (≈ 6.23 µM)	4.68 (≈ 12.5 µM)	4.68 (≈ 12.5 µM)	324	> 150	18.8 (≈ 50 µM)	inactive	312	> 150	> 150	9.37 (≈ 25 µM)	> 150	4.68 (≈ 12.5 µM)	9.37 (≈ 25 µM)	> 150	> 150	18.8 (≈ 50 µM)	–	9.8 (≈ 26.1 µM)	3.4 (≈ 9.06 µM)	Activity [8]: inactive; inhibition (Staphylococcus aureus [18]): inactive
CC[C@H]1OC(=O)[C@H](C)[C@@H](O[C@H]2C[C@@](C)(OC)[C@@H](O)[C@H](C)O2)[C@H](C)[C@@H](O[C@@H]2O[C@H](C)C[C@H](N(C)C)[C@H]2O)[C@](C)(O)C[C@@H](C)C(=O)[C@H](C)[C@@H](O)[C@]1(C)O [ERYTHROMYCIN]	–	–	–	–	–	–	–	–	–	–	–	–	–	–	–	–	–	0.25 (≈ 0.341 µM)	0.19 (≈ 0.259 µM)	0.21 (≈ 0.286 µM)	–
O=C(NCc1cn(Cc2cccc([N+](=O)[O-])c2)nn1)c1ccc([N+](=O)[O-])o1	2.34 (≈ 6.29 µM)	1.17 (≈ 3.14 µM)	4.68 (≈ 12.6 µM)	199	> 150	37.5 (≈ 101 µM)	inactive	326	18.8 (≈ 50.4 µM)	> 150	9.37 (≈ 25.2 µM)	9.37 (≈ 25.2 µM)	4.68 (≈ 12.6 µM)	2.34 (≈ 6.29 µM)	> 150	> 150	18.8 (≈ 50.4 µM)	84.5 (≈ 227 µM)	14.5 (≈ 38.9 µM)	0.8 (≈ 2.15 µM)	MIC [8]: 8 µg/mL (≈ 21.5 µM); MIC (Enterococcus faecalis): > 64 µg/mL; MIC (Staphylococcus aureus [12]): 8 µg/mL (≈ 21.5 µM)
Clc1ccc(COC(Cn2ccnc2)c2ccc(Cl)cc2Cl)c(Cl)c1 (stereo not given) [MICONAZOLE]	–	–	–	–	–	–	–	–	–	–	–	–	–	–	–	–	–	–	–	–	MIC (Candida albicans [21]): 9.37 µg/mL (≈ 22.5 µM)
COc1ccc(Cn2cc(CNC(=O)c3ccc([N+](=O)[O-])o3)nn2)cc1O	9.37 (≈ 25.1 µM)	9.37 (≈ 25.1 µM)	18.8 (≈ 50.2 µM)	189	37.5 (≈ 100 µM)	18.8 (≈ 50.2 µM)	inactive	174	75 (≈ 201 µM)	> 150	9.37 (≈ 25.1 µM)	37.5 (≈ 100 µM)	9.37 (≈ 25.1 µM)	18.8 (≈ 50.2 µM)	> 150	75 (≈ 201 µM)	18.8 (≈ 50.2 µM)	10.3 (≈ 27.6 µM)	11.3 (≈ 30.3 µM)	5.1 (≈ 13.7 µM)	Activity [8]: inactive
